From patent publication US9346798B2, “Dihydrobenzoxazine and tetrahydroquinoxaline sodium channel inhibitors” (AMGEN INC., priority 2012, dated 2016) come the findings set out here.

Type in all cases: cell-based
Data set [1] concerns the target T1, Nav 1.7 (Homo sapiens (Human), UniProt Q15858). Put plainly: Nav 1.7 in vitro assay, IonWorks Quattro (IWQ) population patch-clamp. As to conditions: HEK 293 cells stably transfected with Nav 1.7; 26th pulse to -20 mV.
Another data set deals with Nav 1.5 (Homo sapiens (Human), UniProt Q14524). The data set can be described thus: Nav 1.5 in vitro assay, IonWorks Quattro (IWQ) population patch-clamp. To be noted: HEK 293 cells stably transfected with Nav 1.5; 26th pulse to -20 mV.
For data set [2], the target named is T1, Nav 1.7. The data set can be described thus: Nav 1.7 in vitro PX assay, PatchXpress whole cell voltage clamp. To be noted: HEK 293 cells stably transfected with human Nav1.7; for inhibition at 4.9 µM: HEK293, values marked *, read-out: Nav 1.7 PX percent inhibition at 4.9 μM; for IC50: partially inactivated state (20 to 50% inactivation). The method in brief: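 Partially inactivated channels (20–50% inactivation at holding potential) were probed on automated patch clamp in stably transfected HEK293 cells, stepping to −10 mV for 20 msec every 10 s (0.1 Hz).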

Each structure is given as a SMILES string.

T1 sequence (Q15858 whole entry): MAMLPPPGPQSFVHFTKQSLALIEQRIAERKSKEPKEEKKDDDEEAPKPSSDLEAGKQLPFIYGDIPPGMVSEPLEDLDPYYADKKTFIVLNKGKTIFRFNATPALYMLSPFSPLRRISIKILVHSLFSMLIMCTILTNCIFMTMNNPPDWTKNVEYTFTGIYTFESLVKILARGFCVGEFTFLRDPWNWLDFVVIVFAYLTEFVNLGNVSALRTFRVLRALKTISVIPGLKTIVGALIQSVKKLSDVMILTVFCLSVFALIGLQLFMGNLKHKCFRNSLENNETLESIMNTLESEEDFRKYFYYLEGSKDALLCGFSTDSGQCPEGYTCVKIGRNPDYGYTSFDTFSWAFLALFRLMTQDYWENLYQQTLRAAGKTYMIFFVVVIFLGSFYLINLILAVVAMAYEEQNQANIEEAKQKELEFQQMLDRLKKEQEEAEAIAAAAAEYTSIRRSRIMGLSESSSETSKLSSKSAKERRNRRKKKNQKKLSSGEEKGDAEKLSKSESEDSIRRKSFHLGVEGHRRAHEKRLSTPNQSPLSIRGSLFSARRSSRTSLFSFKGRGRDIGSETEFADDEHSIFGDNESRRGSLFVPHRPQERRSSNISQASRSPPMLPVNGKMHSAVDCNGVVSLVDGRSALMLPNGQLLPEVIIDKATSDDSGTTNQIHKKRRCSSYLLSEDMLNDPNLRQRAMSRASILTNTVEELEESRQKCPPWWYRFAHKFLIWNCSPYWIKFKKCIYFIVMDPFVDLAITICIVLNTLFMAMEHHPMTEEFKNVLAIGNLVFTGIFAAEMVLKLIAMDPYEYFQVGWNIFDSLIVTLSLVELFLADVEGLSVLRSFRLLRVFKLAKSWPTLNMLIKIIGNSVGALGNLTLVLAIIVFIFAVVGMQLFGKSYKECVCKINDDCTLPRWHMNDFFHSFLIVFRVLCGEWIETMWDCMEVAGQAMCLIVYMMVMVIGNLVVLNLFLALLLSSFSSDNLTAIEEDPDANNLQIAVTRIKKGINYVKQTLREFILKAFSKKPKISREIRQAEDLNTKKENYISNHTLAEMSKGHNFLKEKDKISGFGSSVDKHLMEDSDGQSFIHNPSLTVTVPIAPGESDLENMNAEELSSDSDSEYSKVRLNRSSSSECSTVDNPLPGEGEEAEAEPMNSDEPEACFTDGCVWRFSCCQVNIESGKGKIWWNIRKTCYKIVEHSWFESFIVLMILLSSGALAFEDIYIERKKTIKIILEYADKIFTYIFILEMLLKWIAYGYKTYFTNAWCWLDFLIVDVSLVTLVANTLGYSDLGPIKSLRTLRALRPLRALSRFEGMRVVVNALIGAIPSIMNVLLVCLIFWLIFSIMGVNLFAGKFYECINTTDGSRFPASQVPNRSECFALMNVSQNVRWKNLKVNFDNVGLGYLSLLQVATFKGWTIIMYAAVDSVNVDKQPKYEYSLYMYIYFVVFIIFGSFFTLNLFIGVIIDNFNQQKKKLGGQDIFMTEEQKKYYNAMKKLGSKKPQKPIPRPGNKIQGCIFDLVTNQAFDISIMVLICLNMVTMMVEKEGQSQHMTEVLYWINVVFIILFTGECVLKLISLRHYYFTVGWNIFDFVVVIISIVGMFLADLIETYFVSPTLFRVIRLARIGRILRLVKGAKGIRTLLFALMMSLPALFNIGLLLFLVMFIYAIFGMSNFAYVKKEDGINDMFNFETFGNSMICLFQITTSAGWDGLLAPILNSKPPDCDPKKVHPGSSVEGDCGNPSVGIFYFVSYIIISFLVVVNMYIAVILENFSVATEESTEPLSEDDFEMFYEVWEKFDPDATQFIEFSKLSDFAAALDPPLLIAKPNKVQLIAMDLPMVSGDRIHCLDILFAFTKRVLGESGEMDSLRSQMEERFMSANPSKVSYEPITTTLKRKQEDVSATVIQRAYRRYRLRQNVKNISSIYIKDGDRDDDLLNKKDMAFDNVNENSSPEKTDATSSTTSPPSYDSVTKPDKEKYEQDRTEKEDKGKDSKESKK
Chain of Nav 1.5 (Q14524 whole entry): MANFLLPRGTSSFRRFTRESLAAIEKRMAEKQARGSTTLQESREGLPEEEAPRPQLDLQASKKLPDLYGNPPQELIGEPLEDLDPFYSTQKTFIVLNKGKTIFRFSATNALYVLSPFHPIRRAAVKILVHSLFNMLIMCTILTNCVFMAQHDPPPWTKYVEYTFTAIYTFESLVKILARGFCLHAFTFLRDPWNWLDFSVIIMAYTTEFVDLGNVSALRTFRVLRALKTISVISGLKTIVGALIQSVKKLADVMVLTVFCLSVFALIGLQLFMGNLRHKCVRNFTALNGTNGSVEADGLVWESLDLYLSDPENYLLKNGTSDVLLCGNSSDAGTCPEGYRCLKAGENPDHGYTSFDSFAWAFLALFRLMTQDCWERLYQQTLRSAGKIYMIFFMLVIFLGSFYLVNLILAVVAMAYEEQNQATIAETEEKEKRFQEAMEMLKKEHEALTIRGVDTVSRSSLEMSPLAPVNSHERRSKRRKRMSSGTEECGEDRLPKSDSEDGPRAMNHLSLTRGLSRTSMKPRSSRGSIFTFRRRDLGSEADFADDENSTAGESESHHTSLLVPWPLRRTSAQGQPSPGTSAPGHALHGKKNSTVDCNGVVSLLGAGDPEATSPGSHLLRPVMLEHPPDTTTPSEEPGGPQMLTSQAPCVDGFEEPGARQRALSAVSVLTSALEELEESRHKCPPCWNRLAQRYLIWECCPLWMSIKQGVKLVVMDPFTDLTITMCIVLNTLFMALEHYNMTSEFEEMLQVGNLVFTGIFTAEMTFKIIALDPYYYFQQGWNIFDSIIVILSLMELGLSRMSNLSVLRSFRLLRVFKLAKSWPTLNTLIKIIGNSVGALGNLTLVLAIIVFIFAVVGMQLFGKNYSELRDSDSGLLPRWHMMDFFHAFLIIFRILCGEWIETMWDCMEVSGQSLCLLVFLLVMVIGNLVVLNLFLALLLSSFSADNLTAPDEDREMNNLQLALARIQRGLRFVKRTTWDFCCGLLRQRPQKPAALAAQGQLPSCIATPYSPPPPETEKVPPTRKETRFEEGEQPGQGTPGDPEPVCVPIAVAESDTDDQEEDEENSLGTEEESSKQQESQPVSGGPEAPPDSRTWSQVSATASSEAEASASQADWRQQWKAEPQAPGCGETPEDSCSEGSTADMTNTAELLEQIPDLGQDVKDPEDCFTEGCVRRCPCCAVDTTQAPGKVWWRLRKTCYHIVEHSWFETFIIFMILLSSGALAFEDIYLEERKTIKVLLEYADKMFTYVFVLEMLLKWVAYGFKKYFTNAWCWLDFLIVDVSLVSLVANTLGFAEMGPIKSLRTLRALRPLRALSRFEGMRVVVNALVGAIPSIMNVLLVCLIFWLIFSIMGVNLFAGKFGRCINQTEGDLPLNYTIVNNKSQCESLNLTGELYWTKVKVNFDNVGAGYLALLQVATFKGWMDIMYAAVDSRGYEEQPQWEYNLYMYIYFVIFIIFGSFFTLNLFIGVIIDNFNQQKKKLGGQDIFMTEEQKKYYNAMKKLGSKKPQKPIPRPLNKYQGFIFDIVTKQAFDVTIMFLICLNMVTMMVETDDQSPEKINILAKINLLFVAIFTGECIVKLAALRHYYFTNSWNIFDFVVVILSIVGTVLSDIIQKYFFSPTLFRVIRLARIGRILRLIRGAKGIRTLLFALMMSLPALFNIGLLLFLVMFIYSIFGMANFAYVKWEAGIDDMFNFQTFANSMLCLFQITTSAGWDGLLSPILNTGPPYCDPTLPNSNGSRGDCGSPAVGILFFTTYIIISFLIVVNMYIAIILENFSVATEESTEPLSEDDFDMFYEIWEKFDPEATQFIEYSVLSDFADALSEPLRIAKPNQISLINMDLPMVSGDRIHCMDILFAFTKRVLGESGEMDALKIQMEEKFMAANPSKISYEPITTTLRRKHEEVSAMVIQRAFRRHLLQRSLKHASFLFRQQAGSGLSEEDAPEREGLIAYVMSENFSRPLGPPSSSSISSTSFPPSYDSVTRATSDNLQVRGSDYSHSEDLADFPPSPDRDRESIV

As to `O=S(=O)(Nc1ccc(F)cn1)c1ccc2c(c1)OCCN2c1ccc(C(F)(F)F)cc1Cl` [Example 17, 4-(2-Chloro-4-(Trifluoromethyl)Phenyl)-N-(5-Fluoropyridin-2-Yl)-3,4-Dihydro-2H-Benzo[B][1,4]Oxazine-7-Sulfonamide], the values for the IC50 against Nav 1.7 [1] and on Nav 1.5 were 3630 nM and more than 10000 nM, respectively. Also, at Nav 1.7 [2], the inhibition at 4.9 µM is 24.1%.

`O=S(=O)(Nc1nccs1)c1ccc2c(c1)OCCN2c1cccc(OC(F)(F)F)c1` [Example 185, N-(Thiazol-2-Yl)-4-(3-(Trifluoromethoxy)Phenyl)-3,4-Dihydro-2H-Benzo[B][1,4]Oxazine-7-Sulfonamide]: the IC50 on Nav 1.7 [1] turned out to be 335 nM; against Nav 1.5, 7620 nM; against Nav 1.7 [2], 2620 nM.

For `COc1ncc(Cl)cc1N1CCOc2cc(S(=O)(=O)Nc3nccs3)ccc21` [Example 111, 4-(5-Chloro-2-methoxypyridin-3-yl)-N-(thiazol-2-yl)-3,4-dihydro-2H-benzo[b][1,4]oxazine-7-sulfonamide], the IC50 against Nav 1.7 [1] was 33.5 nM; against Nav 1.5, 3030 nM; at Nav 1.7 [2], 1050 nM.

As to `O=S(=O)(Nc1nccs1)c1ccc2c(c1)OCCN2c1ccc(C(F)(F)F)nc1` [Example 122, N-(thiazol-2-yl)-4-(6-(trifluoromethyl)pyridin-3-yl)-3,4-dihydro-2H-benzo[b][1,4]oxazine-7-sulfonamide], the results for the IC50 against Nav 1.7 [1], against Nav 1.5 and against Nav 1.7 [2] were 615 nM, 7030 nM and 2900 nM, respectively.

As to `COc1cc(C#N)ccc1N1C[C@@H](C)Oc2cc(S(=O)(=O)Nc3nccs3)ccc21` (single isomer, unassigned) [Example 108], the results for the IC50 at Nav 1.7 [1], against Nav 1.5 and at Nav 1.7 [2] were 45.5 nM, more than 10000 nM and 303 nM, respectively.

For `C[C@H]1CN(c2ccc(C(F)(F)F)cc2C#N)c2ccc(S(=O)(=O)Nc3nccs3)cc2O1` (single isomer, unassigned) [Example 94], the IC50 at Nav 1.7 [1] is 8.5 nM; against Nav 1.5, 724 nM; against Nav 1.7 [2], 149 nM.

For the molecule `COc1ccncc1N1CCOc2cc(S(=O)(=O)Nc3nccs3)ccc21` [Example 190, 4-(4-Methoxypyridin-3-Yl)-N-(Thiazol-2-Yl)-3,4-Dihydro-2H-Benzo[B][1,4]Oxazine-7-Sulfonamide], the IC50 on Nav 1.7 [1] is 309 nM; against Nav 1.5, more than 10000 nM; on Nav 1.7 [2] it was 5170 nM.

With `O=S(=O)(Nc1ccno1)c1ccc2c(c1)OCCN2c1ccc(C(F)(F)F)cc1Cl` [Example 55, 4-(2-Chloro-4-(Trifluoromethyl)Phenyl)-N-(Isoxazol-5-Yl)-3,4-Dihydro-2H-Benzo[B][1,4]Oxazine-7-Sulfonamide], the IC50 at Nav 1.7 [1] was 2920 nM; against Nav 1.5 it was more than 10000 nM; at Nav 1.7 [2], 19900 nM.

`O=S(=O)(Nc1nccs1)c1ccc2c(c1)OCCN2c1ccc(Cl)cc1OC(F)F` [Example 193, 4-(4-Chloro-2-(Difluoromethoxy)Phenyl)-N-(Thiazol-2-Yl)-3,4-Dihydro-2H-Benzo[B][1,4]Oxazine-7-Sulfonamide 2,2,2-Trifluoroacetate]: the IC50 at Nav 1.7 [1] amounted to 103 nM; against Nav 1.5, 1560 nM; on Nav 1.7 [2], 684 nM.

On to `O=S(=O)(Nc1nccs1)c1ccc2c(c1)OCCN2c1ccccc1` [Example 165, 4-phenyl-N-(thiazol-2-yl)-3,4-dihydro-2H-benzo[b][1,4]oxazine-7-sulfonamide], for which the IC50 against Nav 1.7 [1] is 700 nM; at Nav 1.5, more than 10000 nM; at Nav 1.7 [2], 3750 nM.

As for `COc1cc(Cl)ccc1N1CC(C)Oc2cc(S(=O)(=O)Nc3nccs3)ccc21` (racemic) [Example 103, 4-(4-Chloro-2-Methoxyphenyl)-2-Methyl-N-(Thiazol-2-Yl)-3,4-Dihydro-2H-Benzo[B][1,4]Oxazine-7-Sulfonamide], the IC50 was determined as 40 nM on Nav 1.7 [1], 9590 nM at Nav 1.5 and 422 nM on Nav 1.7 [2].

Consider `O=S(=O)(Nc1nccs1)c1ccc2c(c1)OCCN2c1ccc2nccnc2c1` [Example 69, 4-(Quinoxalin-6-Yl)-N-(Thiazol-2-Yl)-3,4-Dihydro-2H-Benzo[B][1,4]Oxazine-7-Sulfonamide 2,2,2-Trifluoroacetate], for which the IC50 is 3780 nM at Nav 1.7 [1] and 4440 nM at Nav 1.5. For the same molecule, on Nav 1.7 [2], the inhibition at 4.9 µM is 33.9%.

As to `O=S(=O)(Nc1nccs1)c1ccc2c(c1)OCCN2Cc1ccccc1` [Example 220, 4-Benzyl-N-(Thiazol-2-Yl)-3,4-Dihydro-2H-Benzo[B][1,4]Oxazine-7-Sulfonamide], the values for the IC50 against Nav 1.7 [1], against Nav 1.5 and against Nav 1.7 [2] were 864 nM, more than 10000 nM and 17200 nM, respectively.

Turning to `N#Cc1ccc(C(F)(F)F)cc1N1CCOc2cc(S(=O)(=O)Nc3nccs3)ccc21` [Example 184, 4-(2-Cyano-5-(Trifluoromethyl)Phenyl)-N-(Thiazol-2-Yl)-3,4-Dihydro-2H-Benzo[B][1,4]Oxazine-7-Sulfonamide], the 50% inhibitory concentration (IC50) came out at 186 nM on Nav 1.7 [1], 3170 nM against Nav 1.5 and 392 nM on Nav 1.7 [2].

As for `[N-]=[N+]=Nc1ccc(N2CCOc3cc(S(=O)(=O)Nc4nccs4)ccc32)c(C2=CCNCC2)c1` [Example 65, 4-(4-Azido-2-(1,2,3,6-Tetrahydropyridin-4-Yl)Phenyl)-N-(Thiazol-2-Yl)-3,4-Dihydro-2H-Benzo[B][1,4]Oxazine-7-Sulfonamide Bis(2,2,2-Trifluoroacetate)], the IC50 worked out at 24 nM against Nav 1.7 [1], 5280 nM at Nav 1.5 and 24.4 nM at Nav 1.7 [2].

Consider `O=S(=O)(Nc1nccs1)c1ccc2c(c1)OCCN2c1ccc(OC(F)(F)C(F)F)cc1` [Example 123, 4-(4-(1,1,2,2-Tetrafluoroethoxy)phenyl)-N-(thiazol-2-yl)-3,4-dihydro-2H-benzo[b][1,4]oxazine-7-sulfonamide], for which the IC50 was 1070 nM at Nav 1.7 [1], 5810 nM against Nav 1.5 and 4720 nM on Nav 1.7 [2].

On to `N#Cc1cc(C(F)(F)F)ccc1N1CCOc2cc(S(=O)(=O)Nc3cscn3)ccc21` [Example 152, 4-(2-cyano-4-(trifluoromethyl)phenyl)-N-(thiazol-4-yl)-3,4-dihydro-2H-benzo[b][1,4]oxazine-7-sulfonamide], for which the IC50 at Nav 1.7 [1] came to 1630 nM; at Nav 1.5 it was 9420 nM; on Nav 1.7 [2], 2780 nM.

Turning to `CCc1ccc(N2CCOc3cc(S(=O)(=O)Nc4nccs4)ccc32)c(C#N)c1` [Example 203, 4-(2-Cyano-4-Ethylphenyl)-N-(Thiazol-2-Yl)-3,4-Dihydro-2H-Benzo[B][1,4]Oxazine-7-Sulfonamide], the figures for the IC50 at Nav 1.7 [1], at Nav 1.5 and on Nav 1.7 [2] were 87.5 nM, 1090 nM and 469 nM, respectively.

For the molecule `Cc1c(F)cccc1N1CCOc2cc(S(=O)(=O)Nc3nccs3)ccc21` [Example 78, 4-(3-Fluoro-2-Methylphenyl)-N-(Thiazol-2-Yl)-3,4-Dihydro-2H-Benzo[B][1,4]Oxazine-7-Sulfonamide 2,2,2-Trifluoroacetate], the figures for the IC50 against Nav 1.7 [1], against Nav 1.5 and on Nav 1.7 [2] were 249 nM, more than 10000 nM and 2220 nM, respectively.

On to `O=S(=O)(Nc1cscn1)c1ccc2c(c1)OCCN2c1ccc(C(F)(F)F)cc1C1=CCNCC1` [Example 63, 4-(2-(1,2,3,6-Tetrahydropyridin-4-Yl)-4-(Trifluoromethyl)Phenyl)-N-(Thiazol-4-Yl)-3,4-Dihydro-2H-Benzo[B][1,4]Oxazine-7-Sulfonamide], for which the IC50 on Nav 1.7 [1] amounted to 27 nM; on Nav 1.5, 2670 nM; against Nav 1.7 [2] it was 144 nM.

Regarding `O=S(=O)(Nc1nccs1)c1ccc2c(c1)OCCN2c1ccc(C(F)(F)F)cc1C(O)CO` (stereo not drawn) [Example 204, 4-(2-(1,2-dihydroxyethyl)-4-(trifluoromethyl)phenyl)-N-(thiazol-2-yl)-3,4-dihydro-2H-benzo[b][1,4]oxazine-7-sulfonamide], the results for the IC50 against Nav 1.7 [1], on Nav 1.5 and at Nav 1.7 [2] were 47.5 nM, 637 nM and 343 nM, respectively.

Consider `O=S(=O)(Nc1nccs1)c1ccc2c(c1)OCCN2c1ccc(C(F)(F)F)cc1Br` [Example 43, 4-(2-Bromo-4-(Trifluoromethyl)Phenyl)-N-(Thiazol-2-Yl)-3,4-Dihydro-2H-Benzo[B][1,4]Oxazine-7-Sulfonamide], for which the IC50 against Nav 1.7 [1] is 115 nM; against Nav 1.5, 1850 nM; at Nav 1.7 [2], 975 nM.

For the molecule `Cc1cc(OC(F)(F)F)ccc1N1CCOc2cc(S(=O)(=O)Nc3nccs3)ccc21` [Example 140, 4-(2-Methyl-4-(trifluoromethoxy)phenyl)-N-(thiazol-2-yl)-3,4-dihydro-2H-benzo[b][1,4]oxazine-7-sulfonamide], the IC50 was found to be 451 nM on Nav 1.7 [1], 6600 nM at Nav 1.5 and 1340 nM at Nav 1.7 [2].

Consider `N#Cc1cc(C(F)(F)F)ccc1N1CCOc2cc(S(=O)(=O)Nc3ncco3)ccc21` [Example 90, 4-(2-Cyano-4-(Trifluoromethyl)Phenyl)-N-(Oxazol-2-Yl)-3,4-Dihydro-2H-Benzo[B][1,4]Oxazine-7-Sulfonamide], for which the IC50 against Nav 1.7 [1] was 924 nM; at Nav 1.5 it was more than 10000 nM; against Nav 1.7 [2], 2590 nM.

On to `CN1CC=C(c2cc(C(F)(F)F)ccc2N2CCOc3cc(S(=O)(=O)Nc4ncns4)ccc32)CC1` [Example 22, 4-(2-(1-Methyl-1,2,3,6-Tetrahydropyridin-4-Yl)-4-(Trifluoromethyl)Phenyl)-N-(1,2,4-Thiadiazol-5-Yl)-3,4-Dihydro-2H-Benzo[B][1,4]Oxazine-7-Sulfonamide 2,2,2-Trifluoroacetate], for which the IC50 is 10.5 nM at Nav 1.7 [1], more than 10000 nM at Nav 1.5 and 134 nM against Nav 1.7 [2].

On to `O=S(=O)(Nc1ccccn1)c1ccc2c(c1)OCCN2c1ccc(C(F)(F)F)cc1Br` [Example 60, 4-(2-Bromo-4-(Trifluoromethyl)Phenyl)-N-(Pyridin-2-Yl)-3,4-Dihydro-2H-Benzo[B][1,4]Oxazine-7-Sulfonamide], for which the IC50 is 1470 nM at Nav 1.7 [1] and more than 10000 nM against Nav 1.5. The inhibition at 4.9 µM on Nav 1.7 [2] amounted to 24.4%.
